A short description of assay [1]: Antioxidant activity assessed as DPPH free radical scavenging activity at 10 uM after 30 mins by UV-spectrophotometric method relative to control. Format: functional. (The DPPH test is a chemical assay of radical scavenging.)
The nature of assay [2]: Antioxidant activity assessed as DPPH free radical scavenging activity at 50 uM after 30 mins by UV-spectrophotometric method relative to control. Type of assay: functional.
Assay [3] is described as follows: Inhibition of rat lens ALR2 using D,L-glyceraldehyde as substrate preincubated for 10 mins followed by substrate addition measured for 5 mins.
A short description of assay [4]: Antioxidant activity assessed as DPPH free radical scavenging activity at 100 uM after 30 mins by UV-spectrophotometric method relative to control. Type of assay: functional.

Consider 29 molecules from ChEMBL document CHEMBL3856217, “A series of pyrido[2,3-b]pyrazin-3(4H)-one derivatives as aldose reductase inhibitors with antioxidant activity” (Eur J Med Chem, 2016).

In the case of `O=C(O)Cn1c(=O)c(-c2c(O)cc(O)cc2O)nc2cc(Cl)cnc21`, the Activity in assay [1] was 41.3%; in assay [2], 69.8%; in assay [4] it was 85.2%. Further, half-maximal inhibition in assay [3] (IC50) required 18 nM.

In turn, `O=C(O)Cn1c(=O)c(/C=C/c2ccc(F)cc2)nc2cccnc21` showed an IC50 in assay [3] of 126 nM. The Activity in assay [4] amounted to 42.7%.

For the molecule `O=C(O)Cn1c(=O)c(/C=C/c2ccc(O)cc2)nc2cccnc21`, the Activity in assay [2] is 44.5%; in assay [4] it was 57.6%. Further, the half-maximal inhibitory concentration (IC50) in assay [3] was found to be 35 nM.

Regarding `COc1cc(/C=C/c2nc3cccnc3n(CC(=O)O)c2=O)ccc1O`, the Activity came out at 48.6% in assay [1], 75.6% in assay [2] and 85.5% in assay [4]. This molecule showed an IC50 in assay [3] of 307 nM.

The molecule `O=C(O)Cn1c(=O)c(-c2ccc(O)c(O)c2)nc2cccnc21` had an IC50 in assay [3] of 831 nM. Also, the Activity in assay [4] worked out at 50.5%.

On to `O=C(O)Cn1c(=O)c(/C=C/c2ccc(O)c(O)c2)nc2cc(Br)cnc21`, for which the Activity in assay [1] worked out at 70.8%; in assay [2] it was 82.4%; in assay [4] it was 95.8%. This molecule also showed an IC50 in assay [3] of 108 nM.

With `COc1c(O)cc(-c2nc3cccnc3n(CC(=O)O)c2=O)cc1O`, half-maximal inhibition in assay [3] (IC50) required 319 nM. Further, the Activity in assay [4] worked out at 45.6%.

In assay [3], `O=C(O)Cn1c(=O)c(-c2ccc(O)cc2O)nc2cc(Br)cnc21` returned an IC50 of 24 nM. Moreover, the Activity in assay [4] stood at 43.5%.

In the case of `O=C(O)Cn1c(=O)c(-c2ccc(O)cc2O)nc2cccnc21`, the IC50 in assay [3] came to 185 nM. For the same molecule, in assay [4], the Activity is 37.7%.

Take `COc1cc(CCc2nc3cccnc3n(CC(=O)O)c2=O)ccc1O`: the Activity in assay [2] is 25.8%; in assay [4], 40.1%. In assay [3], this molecule yielded an IC50 of 689 nM.

`O=C(O)Cn1c(=O)c(-c2ccc(O)cc2O)nc2cc(Cl)cnc21` had a concentration for half-maximal inhibition (IC50) in assay [3] of 9 nM. Moreover, the Activity in assay [4] amounted to 41.5%.

For `O=C(O)Cn1c(=O)c(-c2cc(O)cc(O)c2)nc2cccnc21`, in assay [3], half-maximal inhibition (IC50) required 296 nM. Moreover, in assay [4], the Activity turned out to be 30.3%.

For `O=C(O)Cn1c(=O)c(/C=C/c2ccccc2)nc2cccnc21`, the Activity worked out at 35.5% in assay [1], 64.1% in assay [2] and 78.9% in assay [4]. In assay [3], it took 895 nM to reach half-maximal inhibition (IC50).

Consider `Cc1c(C)c2c(c(C)c1O)CCC(C)(C(=O)O)O2` (configuration not stated), for which the Activity in assay [1] is 78.2%; in assay [2], 89.6%; in assay [4], 96.2%.

Take `COc1ccc(/C=C/c2nc3cccnc3n(CC(=O)O)c2=O)cc1`: the Activity in assay [2] came to 39.1%; in assay [4], 52.8%. The same molecule came in with a half-inhibitory concentration (IC50) in assay [3] of 1520 nM.

`COc1ccc(-c2nc3cccnc3n(CC(=O)O)c2=O)cc1O` showed an IC50 in assay [3] of 2210 nM. Besides, in assay [4], the Activity stood at 32.1%.

In the case of `COc1cc(/C=C/c2nc3cc(Br)cnc3n(CC(=O)O)c2=O)ccc1O`, the Activity was determined as 59.6% in assay [1], 75.4% in assay [2] and 90.1% in assay [4]. This molecule also showed an IC50 in assay [3] of 389 nM.

In assay [3], `O=C(O)Cn1c(=O)c(-c2ccc(O)cc2)nc2cccnc21` came in with a 50% inhibitory concentration (IC50) of 1030 nM. The Activity in assay [4] was found to be 6.5%.

The molecule `O=C(O)Cn1c(=O)c(CCc2ccc(O)cc2)nc2cccnc21` showed an IC50 in assay [3] of 918 nM. Besides, the Activity in assay [4] came to 35.2%.

On to `COc1cc(-c2nc3cccnc3n(CC(=O)O)c2=O)cc(O)c1OC`, for which the IC50 in assay [3] turned out to be 578 nM. For the same molecule, the Activity in assay [4] amounted to 20.5%.

Take `O=C(O)Cn1c(=O)c(/C=C/c2ccc(O)c(O)c2)nc2cc(Cl)cnc21`: the results for the Activity in assay [1], in assay [2] and in assay [4] were 74.7%, 87.4% and 97.1%, respectively. In assay [3], this molecule returned an IC50 of 36 nM.

Regarding `O=C(O)Cn1c(=O)c(/C=C/c2ccc(O)cc2)nc2cc(Br)cnc21`, the Activity in assay [2] is 43.8%; in assay [4] it was 61.2%. In addition, in assay [3], the midpoint of inhibition, the IC50, lay at 29 nM.

Take `O=C(O)Cn1c(=O)c(/C=C/c2ccc(O)cc2)nc2cc(Cl)cnc21`: the Activity was 47.5% in assay [2] and 66.2% in assay [4]. In assay [3], the half-inhibitory concentration (IC50) came to 13 nM.

For the molecule `COc1cc(/C=C/c2nc3cc(Cl)cnc3n(CC(=O)O)c2=O)ccc1O`, the Activity came to 62.3% in assay [1], 81.8% in assay [2] and 94.9% in assay [4]. The same molecule displayed an IC50 in assay [3] of 87 nM.

With `O=C(O)Cn1c(=O)c(-c2c(O)cc(O)cc2O)nc2cccnc21`, the Activity worked out at 40.2% in assay [1], 70.9% in assay [2] and 83.5% in assay [4]. The molecule also returned an IC50 in assay [3] of 68 nM.

`COc1cc(O)cc(-c2nc3cccnc3n(CC(=O)O)c2=O)c1` came in with an IC50 in assay [3] of 5210 nM.

For the molecule `O=C(O)Cn1c(=O)c(-c2cc(O)c(O)c(O)c2)nc2cccnc21`, the Activity was 34.6% in assay [1], 62.4% in assay [2] and 70.7% in assay [4]. Also, the half-maximal inhibitory concentration (IC50) in assay [3] worked out at 179 nM.

Consider `O=C(O)Cn1c(=O)c(/C=C/c2ccc(O)c(O)c2)nc2cccnc21`, for which the results for the Activity in assay [1], in assay [2] and in assay [4] were 55.1%, 78.4% and 89.1%, respectively. Besides, the IC50 in assay [3] amounted to 165 nM.

Regarding `O=C(O)Cn1c(=O)c(-c2ccccc2)nc2cccnc21`, the half-inhibitory concentration (IC50) in assay [3] came to 9940 nM.

One may read the IC50 as the concentration that gives 50% inhibition.
